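Exposure lasted 48 hours, with cells grown in 96-well plates and compounds tested at five concentrations. Here, GI50 denotes the concentration required for 50% inhibition of growth.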 Calls of active or inactive are those of the source. Cut-off read from the data, not from the text of the source: active = GI50 up to about 1.1 µM and inactive = higher.
Assays:
Assay in all cases: DTP human tumour cell line panel, 48 h
MCF7 = test system: MCF7
SK-OV-3 = test system: SK-OV-3
A498 = test system: A498
KM12 = test system: KM12
UO-31 = test system: UO-31
HOP-62 = test system: HOP-62
SR = test system: SR
SK-MEL-28 = test system: SK-MEL-28
NCI-H460 = test system: NCI-H460
NCI-H522 = test system: NCI-H522
SN12C = test system: SN12C
MOLT-4 = test system: MOLT-4
SF-539 = test system: SF-539
T47D = test system: T47D
OVCAR-5 = test system: OVCAR-5
MDA-MB-435 = test system: MDA-MB-435
TK-10 = test system: TK-10
MDA-MB-231 = test system: MDA-MB-231
A549 = test system: A549
786-0 = test system: 786-0
CCRF-CEM = test system: CCRF-CEM
COLO 205 = test system: COLO 205
SK-MEL-5 = test system: SK-MEL-5
K562 = test system: K562
HCT-15 = test system: HCT-15
LOX IMVI = test system: LOX IMVI
NCI-H23 = test system: NCI-H23
M14 = test system: M14
CAKI-1 = test system: CAKI-1
ACHN = test system: ACHN
IGROV-1 = test system: IGROV-1
HCC 2998 = test system: HCC 2998
SNB-75 = test system: SNB-75
EKVX = test system: EKVX
OVCAR-8 = test system: OVCAR-8
BT-549 = test system: BT-549
SF-268 = test system: SF-268
HT-29 = test system: HT-29
NCI-H226 = test system: NCI-H226
OVCAR-3 = test system: OVCAR-3
RXF 393 = test system: RXF 393
U-251 = test system: U-251
NCI/ADR-RES = test system: NCI/ADR-RES
HCT-116 = test system: HCT-116
SW-620 = test system: SW-620
OVCAR-4 = test system: OVCAR-4
DU-145 = test system: DU-145
UACC-257 = test system: UACC-257
HL-60 = test system: HL-60
PC-3 = test system: PC-3
SK-MEL-2 = test system: SK-MEL-2
UACC-62 = test system: UACC-62
HOP-92 = test system: HOP-92
RPMI-8226 = test system: RPMI-8226
SF-295 = test system: SF-295
Malme-3M = test system: Malme-3M
SNB-19 = test system: SNB-19
MDA-N = test system: MDA-N

Structure (SMILES): Cc1ccc(S(=O)(=O)OI(O)CC(F)(F)F)cc1
- GI50 (MCF7): > 100 µM (inactive)
- GI50 (SK-OV-3): > 100 µM (inactive)
- GI50 (A498): > 100 µM (inactive)
- GI50 (KM12): > 100 µM (inactive)
- GI50 (UO-31): > 100 µM (inactive)
- GI50 (HOP-62): > 100 µM (inactive)
- GI50 (SR): > 100 µM (inactive)
- GI50 (SK-MEL-28): > 100 µM (inactive)
- GI50 (NCI-H460): > 100 µM (inactive)
- GI50 (NCI-H522): 91.8 µM (inactive)
- GI50 (SN12C): > 100 µM (inactive)
- GI50 (MOLT-4): > 100 µM (inactive)
- GI50 (SF-539): > 100 µM (inactive)
- GI50 (T47D): > 100 µM (inactive)
- GI50 (OVCAR-5): > 100 µM (inactive)
- GI50 (MDA-MB-435): > 100 µM (inactive)
- GI50 (TK-10): > 100 µM (inactive)
- GI50 (MDA-MB-231): > 100 µM (inactive)
- GI50 (A549): > 100 µM (inactive)
- GI50 (786-0): > 100 µM (inactive)
- GI50 (CCRF-CEM): > 100 µM (inactive)
- GI50 (COLO 205): > 100 µM (inactive)
- GI50 (SK-MEL-5): > 100 µM (inactive)
- GI50 (K562): > 100 µM (inactive)
- GI50 (HCT-15): > 100 µM
- GI50 (LOX IMVI): > 100 µM (inactive)
- GI50 (NCI-H23): > 100 µM (inactive)
- GI50 (M14): > 100 µM (inactive)
- GI50 (CAKI-1): > 100 µM (inactive)
- GI50 (ACHN): > 100 µM (inactive)
- GI50 (IGROV-1): > 100 µM (inactive)
- GI50 (HCC 2998): > 100 µM (inactive)
- GI50 (SNB-75): > 100 µM (inactive)
- GI50 (EKVX): > 100 µM (inactive)
- GI50 (OVCAR-8): > 100 µM (inactive)
- GI50 (BT-549): > 100 µM (inactive)
- GI50 (SF-268): > 100 µM (inactive)
- GI50 (HT-29): > 100 µM (inactive)
- GI50 (NCI-H226): > 100 µM (inactive)
- GI50 (OVCAR-3): > 100 µM (inactive)
- GI50 (RXF 393): > 100 µM (inactive)
- GI50 (U-251): > 100 µM (inactive)
- GI50 (NCI/ADR-RES): > 100 µM (inactive)
- GI50 (HCT-116): > 100 µM (inactive)
- GI50 (SW-620): > 100 µM (inactive)
- GI50 (OVCAR-4): > 100 µM (inactive)
- GI50 (DU-145): > 100 µM (inactive)
- GI50 (UACC-257): > 100 µM (inactive)
- GI50 (HL-60): > 100 µM (inactive)
- GI50 (PC-3): > 100 µM (inactive)
- GI50 (SK-MEL-2): > 100 µM (inactive)
- GI50 (UACC-62): > 100 µM (inactive)
- GI50 (HOP-92): > 100 µM (inactive)
- GI50 (RPMI-8226): > 100 µM (inactive)
- GI50 (SF-295): > 100 µM (inactive)

Structure (SMILES): CC(=O)/C=C/CCC(=O)/C=C/C(=O)OC(CCC(=O)/C=C/C(=O)O)CC(C)=O (stereo unspecified)
- GI50 (MCF7): 93.1 µM (inactive)
- GI50 (KM12): > 100 µM (inactive)
- GI50 (HOP-62): > 100 µM (inactive)
- GI50 (SR): 88.9 µM (inactive)
- GI50 (SK-MEL-28): > 100 µM (inactive)
- GI50 (NCI-H460): > 100 µM (inactive)
- GI50 (NCI-H522): 96.4 µM (inactive)
- GI50 (SN12C): > 100 µM (inactive)
- GI50 (Malme-3M): > 100 µM (inactive)
- GI50 (MOLT-4): > 100 µM (inactive)
- GI50 (SF-539): > 100 µM (inactive)
- GI50 (T47D): > 100 µM (inactive)
- GI50 (OVCAR-5): > 100 µM (inactive)
- GI50 (MDA-MB-435): > 100 µM (inactive)
- GI50 (TK-10): > 100 µM (inactive)
- GI50 (MDA-MB-231): > 100 µM (inactive)
- GI50 (A549): > 100 µM (inactive)
- GI50 (786-0): > 100 µM (inactive)
- GI50 (CCRF-CEM): 43.8 µM (inactive)
- GI50 (SNB-19): > 100 µM (inactive)
- GI50 (COLO 205): > 100 µM (inactive)
- GI50 (SK-MEL-5): > 100 µM (inactive)
- GI50 (K562): > 100 µM (inactive)
- GI50 (HCT-15): 92.5 µM
- GI50 (NCI-H23): > 100 µM (inactive)
- GI50 (M14): > 100 µM (inactive)
- GI50 (ACHN): > 100 µM (inactive)
- GI50 (IGROV-1): > 100 µM (inactive)
- GI50 (HCC 2998): > 100 µM (inactive)
- GI50 (EKVX): > 100 µM (inactive)
- GI50 (OVCAR-8): > 100 µM (inactive)
- GI50 (BT-549): > 100 µM (inactive)
- GI50 (SF-268): > 100 µM (inactive)
- GI50 (HT-29): > 100 µM (inactive)
- GI50 (NCI-H226): 42.6 µM (inactive)
- GI50 (OVCAR-3): > 100 µM (inactive)
- GI50 (RXF 393): > 100 µM (inactive)
- GI50 (U-251): > 100 µM (inactive)
- GI50 (NCI/ADR-RES): > 100 µM (inactive)
- GI50 (HCT-116): > 100 µM (inactive)
- GI50 (SW-620): > 100 µM (inactive)
- GI50 (OVCAR-4): > 100 µM (inactive)
- GI50 (DU-145): > 100 µM (inactive)
- GI50 (UACC-257): > 100 µM (inactive)
- GI50 (HL-60): 32.8 µM (inactive)
- GI50 (PC-3): > 100 µM (inactive)
- GI50 (UACC-62): 1.19 µM (inactive)
- GI50 (HOP-92): > 100 µM (inactive)
- GI50 (MDA-N): > 100 µM (inactive)
- GI50 (RPMI-8226): 54.7 µM (inactive)
- GI50 (SF-295): > 100 µM (inactive)
